Experimental data taken from patent US20060122201A1, “Uracil-thioether” (priority 2002, published 2006).
pIC50: −log10 of the molar value.

Target: T1, Pol III (PolC) from S. aureus (Staphylococcus aureus, UniProt P0C1P9)
T1 construct: His tag (pET15b vector) (N); made in house; host or cells: E. coli BL21(DE3)
T1 sequence (P0C1P9 1-1435): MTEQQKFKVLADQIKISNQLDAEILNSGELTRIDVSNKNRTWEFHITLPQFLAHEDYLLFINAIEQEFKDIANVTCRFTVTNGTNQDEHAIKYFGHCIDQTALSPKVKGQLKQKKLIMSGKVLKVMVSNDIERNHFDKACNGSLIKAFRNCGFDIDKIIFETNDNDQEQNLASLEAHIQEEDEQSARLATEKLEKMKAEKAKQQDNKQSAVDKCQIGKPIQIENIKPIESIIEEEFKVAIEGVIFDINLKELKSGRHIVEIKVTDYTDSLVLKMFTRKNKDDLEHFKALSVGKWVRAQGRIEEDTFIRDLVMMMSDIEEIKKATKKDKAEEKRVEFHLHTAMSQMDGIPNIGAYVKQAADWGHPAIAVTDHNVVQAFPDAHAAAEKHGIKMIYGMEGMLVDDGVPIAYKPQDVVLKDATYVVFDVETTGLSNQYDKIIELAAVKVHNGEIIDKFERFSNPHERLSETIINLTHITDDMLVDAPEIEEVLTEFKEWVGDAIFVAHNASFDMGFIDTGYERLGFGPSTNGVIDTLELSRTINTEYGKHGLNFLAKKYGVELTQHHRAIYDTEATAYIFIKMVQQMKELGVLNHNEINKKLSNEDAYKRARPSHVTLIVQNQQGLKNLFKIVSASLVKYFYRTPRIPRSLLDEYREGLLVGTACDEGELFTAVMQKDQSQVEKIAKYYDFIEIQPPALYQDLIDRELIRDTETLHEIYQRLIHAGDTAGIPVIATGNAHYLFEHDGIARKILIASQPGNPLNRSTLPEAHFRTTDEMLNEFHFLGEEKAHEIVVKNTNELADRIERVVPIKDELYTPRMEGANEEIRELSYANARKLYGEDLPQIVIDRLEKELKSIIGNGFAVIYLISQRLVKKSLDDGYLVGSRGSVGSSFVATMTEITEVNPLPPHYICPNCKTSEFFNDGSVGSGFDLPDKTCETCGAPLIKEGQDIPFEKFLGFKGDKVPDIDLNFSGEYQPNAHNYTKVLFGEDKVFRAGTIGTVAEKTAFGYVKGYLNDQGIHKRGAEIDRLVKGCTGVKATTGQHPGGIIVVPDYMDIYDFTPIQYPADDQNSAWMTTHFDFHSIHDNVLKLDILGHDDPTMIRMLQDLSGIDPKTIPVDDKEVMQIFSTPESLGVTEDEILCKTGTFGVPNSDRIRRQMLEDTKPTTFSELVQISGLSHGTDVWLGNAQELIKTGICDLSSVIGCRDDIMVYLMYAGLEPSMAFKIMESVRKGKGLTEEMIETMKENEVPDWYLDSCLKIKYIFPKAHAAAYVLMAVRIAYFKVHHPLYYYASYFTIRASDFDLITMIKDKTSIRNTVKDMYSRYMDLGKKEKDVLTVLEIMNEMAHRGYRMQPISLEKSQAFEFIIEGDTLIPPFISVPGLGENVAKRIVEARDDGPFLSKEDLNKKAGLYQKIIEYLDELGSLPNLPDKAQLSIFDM
Assay: Determination of the IC50 for Polymerase III (PolC), coupled pyrophosphate/ATP sulfurylase/luciferase assay
Assay type: biochemical
Details: purified His-tagged PolC 2 nM, activated calf thymus DNA, 30° C. 30 min, luminescence readout
Description: Cloning, Expression and Purification of Pol III from S. aureus
To clone polC with an N-terminal His tag, the structural gene polC is amplified from S. aureus genomic DNA with the aid of PCR. The primers SAPol 31 5′-[…]-3′ and SAPolrev 5′-[…]-3′ are used to introduce the NdeI and BamHI restriction cleavage sites respectively in front of and behind the amplified gene. After the PCR product which is 4300 bp in size has been digested with NdeI and BamHI, it is ligated into the vector pET15b (Novagen, USA), which has likewise been digested with NdeI and BamHI, and transformed into E. coli XL-1 Blue.
After transformation into E. coli BL21(DE3), the cells are cultivated for expression of PolC at 30° C. in LB medium with 100 μg/ml ampicillin until the OD595nm is 0.5, cooled to 18° C. and, after addition of 1 mM IPTG, incubated for a further 20 hours. The cells are harvested by centrifugation, washed once in PBS with 1 mM PMSF and taken up in 50 mM NaH2PO4 pH 8.0, 10 mM imidazole, 2 mM β-mercaptoethanol, 1 mM PMSF, 20% glycerol. The cells are disrupted using a French press at 12,000 psi, the cell detritus is removed by centrifugation (27,000×g, 120 min, 4° C.) and the supernatant is stirred with an appropriate amount of Ni-NTA-agarose (from Quiagen, Germany) at 4° C. for 1 hour. After the gel matrix has been packed into a column it is washed with 50 mM NaH2PO4 pH 8.0, 2 mM β-mercaptoethanol, 20 mM imidazole, 10% glycerol, and the purified protein is then eluted with the same buffer containing 100 mM imidazole. The purified protein is mixed with 50% glycerol and stored at −20° C.
Determination of the IC50 for Polymerase III
The activity of PolC is measured in an enzymatically coupled reaction, with the pyrophosphate formed during the polymerization being converted with the aid of ATP sulfurylase into ATP, which is detected using firefly luciferase. The reaction mixture contains, in a final volume of 50 μl, 50 mM Tris/Cl pH 7.5; 5 mM DTT, 10 mM MgCl2, 30 mM NaCl, 0.1 mg/ml BSA, 10% glycerol, 20 μM each DATP, dTTP, dCTP, 2 U/ml activated calf thymus DNA (from Worthington, USA), 20 μM APS and 0.06 mM luciferin. The reaction is started by adding purified PolC in a final concentration of 2 nM and is incubated at 30° C. for 30 min. The amount of pyrophosphate formed is then converted into ATP by adding ATP sulfurylase (Sigma, USA) in a final concentration of 5 nM and incubating at 30° C. for 15 min. After addition of 0.2 nM firefly luciferase, the luminescence is measured in a luminometer for 60 s. The IC50 is reported as the concentration of an inhibitor which leads to 50% inhibition of the enzymic activity of PolC.

With CSc1nnc(CSCCn2c(=O)cc(Nc3ccc4c(c3)CCC4)[nH]c2=O)s1 [Example 15] as the molecule, how does the pIC50 read?
Its pIC50 is 6.96.

How did the pIC50 turn out when CCc1cc(Nc2cc(=O)n(CCSCc3nnc(C)s3)c(=O)[nH]2)ccc1C [Example 16] was run?
Its pIC50 is 7.30.

With CCc1cc(Nc2cc(=O)n(CCSCC(=O)N3CCN(c4ccc([N+](=O)[O-])cc4)CC3)c(=O)[nH]2)ccc1C [Example 34] as the molecule, how does the pIC50 read?
Its pIC50 is 6.52.

How did the pIC50 turn out when CCc1cc(Nc2cc(=O)n(CCSCc3c(C)noc3C)c(=O)[nH]2)ccc1C [Example 42] was run?
The pIC50 was 7.10.

CCc1cc(Nc2cc(=O)n(CCCSCC(=O)N3CCN(c4ccc(F)cc4)CC3)c(=O)[nH]2)ccc1C [Example 47] was tested. Which pIC50 did it give?
Its pIC50 is 6.40.
